Results reported in patent US8945397B2, “Methods of inhibiting cyanobacteria growth by administering gramine derivatives” (priority 2012, dated 2015).
≈ marks a conversion by molar mass, not a printed value. Entries after “also recorded” stand apart in the source; their conditions may differ.

Tests used:
M. Aeruginosa [1] = details: according to the Hong articles; cited from earlier work
M. Aeruginosa [2] = test: Optical absorption assay of M. aeruginosa growth at varying concentrations, 8 days, with LC50 calculation; format: cell-based, Microcystis aeruginosa; details: for OD600 as % of the corresponding OD600 measurement of the control sample: 8 days; for OD600 of M. aeruginosa after 8 days: start OD600 0.1, control about 2.4; for LC50: Microcystis aeruginosa, 192 h, read-out: Lethal Concentration 50 (LC50)
Procedure: (§1) Different concentrations of 5,6-dichlorogramine were administered to M. aeruginosa cells as indicated. M. aeruginosa cell density measurements were taken every 24 hours. […] During the first 3 days, the M. aeruginosa cell densities for the control sample and the 5,6-dichlorogramine samples were similar. But starting on day 4, there was larger differentiation in M. aeruginosa cell densities between the control samples and the 5,6-dichlorogramine administered samples. […] In contrast, the OD600 of M. aeruginosa after 8 days of exposure to 0.05 mg/L 5,6-dichlorogramine was about 0.9, only about 38% of the corresponding OD600 measurement of the control sample. The OD600 measurement for M. aeruginosa after 8 days of exposure to about 0.2 mg/L 5,6-dichlorogramine was about 0.6, only about 25% of the corresponding OD600 measurement of the control sample. The OD600 measurement for M. aeruginosa after 8 days of exposure to about 0.8 mg/L 5,6-dichlorogramine was about 0.3, only about 13% of the corresponding OD600 measurement of the control sample.
as §1, with “5,6,7-trichlorogramine” for “5,6-dichlorogramine”
LC50 is a common way to describe the median lethal concentration of an administered agent in a medium, such as air or water, needed to kill half of the organism population living within the medium. LC50 is a well-known method of describing the acute toxicity of an administered agent on the target organism population.
(§2) In FIG. 6, the optical density measurement (OD600) of the M. aeruginosa cells on day 8 was plotted against the administered 5,6-dichlorogramine concentration. […] Half of about 2.4 is about 1.2, and according to FIG. 6, the 1.2 optical density measurement corresponds to an approximately 0.03 mg/L 5,6-dichlorogramine concentration. Based on these calculations, the effective amount of 5,6-dichlorogramine to administer to control the growth and spread of M. aeruginosa algae in fresh water may be a 5,6-dichlorogramine concentration ranging between about 0.01 mg/L and about 0.05 mg/L, and may be more specifically about 0.03 mg/L.
as §2, with “7,” for “6,”, “(ODo)” for “(OD600)”, “5,6,7-trichlorogramine” for “5,6-dichlorogramine”

[3] = tested on: M. aeruginosa cyanobacteria, isolate strain 2667; test: Petri dish screen of gramine compounds for M. aeruginosa growth inhibition; format: cell-based, Microcystis aeruginosa; details: about 0.5 mg/L compound in BG-11 medium, after 15 days, FIG. 2
Procedure: The screen tested the compounds on M. aeruginosa cyanobacteria, isolate strain 2667 from Culture Collection of Algae (CCA) at the University of Texas at Austin. For the initial screening test, the twelve compounds were each administered at different concentrations of: 0.5 mg/L, 1.0 mg/L, 2.0 mg/L, 4.0 mg/L, and 8.0 mg/L. The compounds were added to a freshwater culture medium (BG-11 Medium from the CCA, UTEX) in petri dishes. The petri dish plates were then incubated at about 22° C. in a lighted growth chamber with about 16-hr light and about 8-hr dark. M. aeruginosa algae growth in the petri dishes were examined and documented after 15 days of incubation.
M. aeruginosa cells were streaked out on BG-11 medium that contained about 0.5 mg/L of the indicated compound. […] The faint algae smears for petri dishes streaked with 5,6-dichlogramine show the original algae cells that had died in the petri dish. […] The faint algae smears for petri dishes streaked with 5,6,7-trichlogramine show the original algae cells that had died in the petri dish.

N. closterium algae = details: Li et al. 2009; cited from earlier work
Arabidopsis thaliana = test: Toxicity to Arabidopsis thaliana plants in petri dishes; format: in vivo; details: 8 mg/L in MS medium
Procedure: The effects of both compounds were tested on Arabidopsis thaliana, a small flowering plant that is widely used as an experimental model plant for laboratory studies. A. thaliana seeds were placed in petri dishes containing standard plant growth media with one gramine compound added (about 8 mg/L). For the control sample, the seeds were placed on the identical growth media without any gramine compound added. All petri dishes containing A. thaliana were kept in a lighted plant growth chamber at 22° C. with cycles of 16-hr light and 8-hr dark. Seed germination and seedling development were closely monitored and documented every 24 hours.
(§3) FIGS. 8a and 8b show images of A. thaliana plants after 8 days of plant growth, or 8 days after germination. The A. thaliana plants were grown in petri dishes filled with Murashige and Skoog medium (MS plant growth medium containing both macronutrients, micronutrients, and vitamins) purchased from Sigma (Cat #M5519)).
as §3, with “9a” for “8a”, “9b” for “8b”, “10” for “8”, “of” for “of plant”

M. Aeruginosa [4] = test: Effective potency duration test in 1 L tap fresh water; format: cell-based, Microcystis aeruginosa; details: about 0.05 mg/L; for OD600 after 180 days / OD600 after 15 days of M. aeruginosa growth: 1 L tap fresh water; for OD600 after 15 days of M. aeruginosa growth: unadministered control 0.119; for duration of effectiveness after administration: single administration
Procedure: Both 5,6-dichlorogramine and 5,6,7-trichlorogramine are not only potent M. aeruginosa growth inhibitors, but they are effective inhibitors for a long period of time. In an experiment to test the effective potency duration of the compound, an equal amount of M. aeruginosa was grown in each of two containers, each containing about 1 L of fresh water from an urban sink tap. One container was administered with about 0.05 mg/L of 5,6-dichlorogramine, and the control container was not administered with any compounds. After 15 days of M. aeruginosa growth, the OD600 measurement for the unadministered M. aeruginosa freshwater sample was 0.119. The unadministered M. aeruginosa freshwater sample was discarded after 15 days. In contrast, after 15 days of M. aeruginosa growth, the OD600 measurement for the 5,6-dichlorogramine administered freshwater sample was 0.003. After 180 days, the OD600 measurement for the M. aeruginosa freshwater sample administered with 5,6-dichlorogramine remained at 0.003.
In another experiment, an equal amount of M. aeruginosa was grown in each of two containers, each containing about 1 L of fresh water from an urban sink tap. One container was administered with about 0.05 mg/L of 5,6,7-trichlorogramine, and the control container was not administered with any compounds. After 15 days of M. aeruginosa growth, the OD600 measurement for the unadministered M. aeruginosa freshwater sample was 0.119. The unadministered M. aeruginosa freshwater sample was discarded after 15 days. In contrast, after 15 days of M. aeruginosa growth, the OD600 measurement for the 5,6,7-trichlrogramine administered freshwater sample was 0.003. After 180 days, the OD600 measurement for the M. aeruginosa freshwater sample administered with 5,6,7-trichlorogramine remained at 0.003.

M. Aeruginosa [5] = test: Liquid culture optical absorption assay (OD600) of M. aeruginosa growth, 15 days; format: cell-based, Microcystis aeruginosa; details: for Inhibition of M. aeruginosa growth in words (liquid culture): 0.5 mg/L, Table 2 and FIG. 3; for OD600 Measured at Day 15 (Starting OD600 at Day 0 is 0.100): 0.5 mg/L compound, liquid culture, control 2.83
Procedure: To quantitatively measure M. Aeruginosa cell growth in responding to various gamine compounds, cell densities were determined by an optical absorption assay as measured by a spectrophotometer (Nanodrop 2000, Thermo Scientific). In the optical absorption assay, the absorbance of radiation (light) is measured as a function of frequency (wavelength). For this optical absorption assay, the algal cell density was determined at 600 nm wavelength. Equal amount of starting cells (optical density at wavelength 600 nm, OD600, was at 0.100 on Day 0) were placed in freshwater culture for 15 days of growth. After 15 days, the algae cell suspension is pipetted into a cuvette and placed within the spectrophotometer for the optical absorption assay.
There is a clear and distinct decrease in M. Aeruginosa algae growth when administered with 5,6-dichlogramine (Compound No. 9) and with 5,6,7-trichlorogramine (Compound No. 12) compared to M. Aeruginosa algae growth in control samples.

[6] = tested on: M. aeruginosa cyanobacterium; details: U.S. Pat. No. 7,612,049; cited from earlier work

CN(C)Cc1c[nH]c2ccccc12 [N,N-dimethyl-3-amino-methylindole]
concentration needed to inhibit the growth of M. aeruginosa (M. Aeruginosa [1]): at least 8 mg/L

CN(C)Cc1c[nH]c2cc(Cl)c(Cl)cc12 [Compound No. 9, 5,6-dichlorogramine]
OD600 as % of the corresponding OD600 measurement of the control sample (M. Aeruginosa [2]; 0.05 mg/L): about 38% | OD600 of M. aeruginosa after 8 days (M. Aeruginosa [2]; 0.05 mg/L): about 0.9 | LC50 (M. Aeruginosa [2]): ~0.03 µg/mL (≈ 0.123 µM) | OD600 as % of the corresponding OD600 measurement of the control sample (M. Aeruginosa [2]; about 0.2 mg/L): about 25% | OD600 of M. aeruginosa after 8 days (M. Aeruginosa [2]; about 0.2 mg/L): about 0.6 | OD600 as % of the corresponding OD600 measurement of the control sample (M. Aeruginosa [2]; about 0.8 mg/L): about 13% | OD600 of M. aeruginosa after 8 days (M. Aeruginosa [2]; about 0.8 mg/L): about 0.3 | M. aeruginosa growth in petri dishes [3]: no M. aeruginosa growth; also recorded: inhibited M. aeruginosa growth completely | inhibition of growth of saltwater N. closterium algae (N. closterium algae): inhibit the growth | growth and development of A. thaliana versus control (Arabidopsis thaliana; 8 days after germination): no growth or developmental difference | OD600 after 180 days (M. Aeruginosa [4]): 0.003 | OD600 after 15 days of M. aeruginosa growth (M. Aeruginosa [4]): 0.003 | duration of effectiveness after administration (M. Aeruginosa [4]): at least 180 days | Inhibition of M. aeruginosa growth in words (liquid culture) (M. Aeruginosa [5]): significantly inhibit the growth

Cc1cccc2[nH]cc(CN(C)C)c12 [compound 4, 4-methylgramine]
OD600 Measured at Day 15 (Starting OD600 at Day 0 is 0.100) (M. Aeruginosa [5]): 2.49

COc1ccc2[nH]cc(CN(C)C)c2c1 [compound 3, 5-methoxygramine]
OD600 Measured at Day 15 (Starting OD600 at Day 0 is 0.100) (M. Aeruginosa [5]): 2.45

CN(C)Cc1c[nH]c2ccc(C#N)cc12 [compound 5, 5-cyanogramine]
OD600 Measured at Day 15 (Starting OD600 at Day 0 is 0.100) (M. Aeruginosa [5]): 2.32

CN(C)Cc1c[nH]c2cccc(OCc3ccccc3)c12 [compound 8, 4-benzyloxygramine]
OD600 Measured at Day 15 (Starting OD600 at Day 0 is 0.100) (M. Aeruginosa [5]): 2.54

CN(C)Cc1c[nH]c2cccc(C#N)c12 [compound 11, 4-cyanogramine]
OD600 Measured at Day 15 (Starting OD600 at Day 0 is 0.100) (M. Aeruginosa [5]): 2.50

CN(C)Cc1c[nH]c2ccc(Cl)cc12 [Compound No. 1, 5-chlorogramine]
OD600 Measured at Day 15 (Starting OD600 at Day 0 is 0.100) (M. Aeruginosa [5]): 1.89 | Inhibition of M. aeruginosa growth in words (liquid culture) (M. Aeruginosa [5]): some inhibitory effects

COc1cccc2[nH]cc(CN(C)C)c12 [compound 10, 4-methoxygramine]
OD600 Measured at Day 15 (Starting OD600 at Day 0 is 0.100) (M. Aeruginosa [5]): 2.66

CN(C)Cc1c[nH]c2ccc(Br)cc12 [compound 2, 5-bromogramine]
OD600 Measured at Day 15 (Starting OD600 at Day 0 is 0.100) (M. Aeruginosa [5]): 1.95 | Inhibition of M. aeruginosa growth in words (liquid culture) (M. Aeruginosa [5]): some inhibitory effects

CN(C)Cc1c[nH]c2cc(OCc3ccccc3)ccc12 [compound 7, 6-benzyloxygramine]
OD600 Measured at Day 15 (Starting OD600 at Day 0 is 0.100) (M. Aeruginosa [5]): 2.12 | Inhibition of M. aeruginosa growth in words (liquid culture) (M. Aeruginosa [5]): some inhibitory effects

CN(C)Cc1c[nH]c2c(Cl)c(Cl)c(Cl)cc12 [Compound No. 12, 5,6,7-trichlorogramine]
OD600 as % of the corresponding OD600 measurement of the control sample (M. Aeruginosa [2]; 0.05 mg/L): about 38% | OD600 of M. aeruginosa after 8 days (M. Aeruginosa [2]; 0.05 mg/L): about 0.9 | LC50 (M. Aeruginosa [2]): ~0.03 µg/mL (≈ 0.108 µM) | OD600 as % of the corresponding OD600 measurement of the control sample (M. Aeruginosa [2]; about 0.2 mg/L): about 25% | OD600 of M. aeruginosa after 8 days (M. Aeruginosa [2]; about 0.2 mg/L): about 0.6 | OD600 as % of the corresponding OD600 measurement of the control sample (M. Aeruginosa [2]; about 0.8 mg/L): about 13% | OD600 of M. aeruginosa after 8 days (M. Aeruginosa [2]; about 0.8 mg/L): about 0.3 | M. aeruginosa growth in petri dishes [3]: no M. aeruginosa growth; also recorded: inhibited M. aeruginosa growth completely | growth and development of A. thaliana versus control (Arabidopsis thaliana; 10 days after germination): no growth or developmental difference | OD600 after 180 days (M. Aeruginosa [4]): 0.003 | OD600 after 15 days of M. aeruginosa growth (M. Aeruginosa [4]): 0.003 | duration of effectiveness after administration (M. Aeruginosa [4]): at least 180 days | Inhibition of M. aeruginosa growth in words (liquid culture) (M. Aeruginosa [5]): significantly inhibit the growth

N[C@H]1C(O)O[C@H](CO)[C@@H](O)[C@@H]1O (some centres unmarked) [glucosamine]
concentration to inhibit the growth of M. aeruginosa [6]: 10-50 ppm
